In patent publication US20210198633A1, “METHODS AND COMPOSITIONS COMPRISING TANKYRASE INHIBITORS FOR GENERATING INSULIN PRODUCING CELLS” (UNIVERSITY HEALTH NETWORK, priority 2018, published 2021):
“Also recorded” adds a separate entry of the source.

Columns and labels:
Format in all cases: cell-based, human
[1] = test system: H1 cell line; test: C-Peptide+/NKX6-1+ beta-like cells by flow cytometry at day 23; conditions: treatment day 8 to day 13: WIKI4 9 uM, G007-LK 5 uM, JW74 10 uM, JW55 5 uM
From the text: Flow cytometry analysis for C-Peptide (a surrogate for insulin) and NKX6.1 performed at day 23 of differentiation, showing high percentage of C-peptide+/NKX6-1+ cells (beta-like cells). Numbers in each quadrant indicate the relevant percentage of the total population. Results shown are from H1 cell line.
FIG. 7 show specific tankyrase inhibitors generate high percentages of beta-like cells as measured by C-peptide/NKX6-1 double positive cells using H1 cell line. […] Results shown are from H1 cell line. Error bars represent SEM. n=4 for all, n=1 for JW74.

[2] = test system: INS^GFP/W reporter line; test: INSULIN:GFP+ cells by fluorescence imaging and flow cytometric analysis after further differentiation; conditions: NE + IWR-1-endo 3 uM or WIKI4 9 uM day 8 to day 13; read day 21/23; compared with XAV939 1.5 uM and MN64 3 uM
Method: Cells treated with various tankyrase pathway inhibitors (Cell treated with NE alone or NE in combination with tankyras inhibitors (NE+XAV939 1.5 uM, NE+IWR-1-endo 3 uM, NE+MN64 3 uM, NE+WIKI4 9 uM)) between day 8 and day 13 of differentiation were differentiated for an additional 10 days using a modified version of the differentiation protocol developed by Rezania and Pagliuca (Rezania et al 2014, Pagliuca 2014). Representative bright field and fluorescent images of cellular aggregates are shown at day 23 of differentiation. Results shown are from INS^GFP/W reporter line.
Quantification of the percentage of INSULIN:GFP+ cells measured by flow cytometric analysis at day 23 of differentiation, arising from cells treated or untreated with different compounds: XAV939, IWR-1, MN64, WIKI4. Cells were treated using NE (−) or NE in combination with different compounds: XAV939 1.5 uM, IWR-1 3 uM, MN64 3 uM, WIKI4 9 uM. Results shown are from INS^GFP/W reporter line, Error bars represent standard deviation. n=4.
In this report we present a new method to generate PDX1+/NKX6.1+ endoderm from a variety of hPSC lines. […] (See FIGS. 1-5).

[3] = test system: INS^GFP/W reporter line; test: Insulin transcript by QPCR normalized to TBP; conditions: day 23; WIKI4 9 uM compared to IWR-1 3 uM, MN64 3 uM, XAV939 1.5 uM
Method: Cells treated with different tankyrase inhibitors express different amounts of insulin transcript, as measured by QPCR. Shown is the relative expression of insulin transcript normalized to the housekeeping gene TBP (TATA Binding Protein) at day 23 of differentiation, where pancreatic progenitor cells were generated by treating cells with or without XAV939, IWR-1, MN64, WIKI4 (XAV939 1.5 uM, IWR-1 3 uM, MN64 3 uM, WIKI4 9 uM). Adult pancreas is used as positive control. Results shown are from INS^GFP/W reporter line. Error bars represent standard deviation. n=3.

| Compound | percentage of C-Peptide+/NKX6-1+ beta-like cells [1] | percentage of INSULIN:GFP+ cells [2] | relative expression of insulin transcript (INS mRNA) normalized to TBP [3] |
| --- | --- | --- | --- |
| CS(=O)(=O)c1ccc(-c2nnc(/C=C/c3nnc(-c4ccc(C#N)cc4)o3)n2-c2ccccc2Cl)nc1 [G007-LK] | able to generate a population of C-peptide+/NKX6.1+ insulin-expressing beta-like cells | – | – |
| O=C(Nc1cccc2cccnc12)c1ccc(N2C(=O)[C@@H]3[C@H](C2=O)[C@@H]2C=C[C@H]3C2)cc1 [IWR-1] | – | higher percentages of INSGFP+ cells; also recorded: higher percentages of Insulin:GFP+ cells | – |
| COc1ccc(C2(CNC(=O)c3ccc(NC(=O)c4ccco4)cc3)CCOCC2)cc1 [JW55] | able to generate a population of C-peptide+/NKX6.1+ insulin-expressing beta-like cells | – | – |
| COc1ccc(-n2c(SCc3nc(-c4ccc(C)cc4)no3)nnc2-c2ccncc2)cc1 [JW74] | able to generate a population of C-peptide+/NKX6.1+ insulin-expressing beta-like cells | – | – |
| COc1ccc(-n2c(SCCCN3C(=O)c4cccc5cccc(c45)C3=O)nnc2-c2ccncc2)cc1 [WIKI4] | high percentages of C-Peptide+/NKX6-1+ insulin expressing beta-like cells; also recorded: able to generate a population of C-peptide+/NKX6.1+ insulin-expressing beta-like cells | higher percentages of INSGFP+ cells; also recorded: higher percentages of Insulin:GFP+ cells | higher levels of INS mRNA |
